Test results as given in patent publication US20250231157A1, “METHOD FOR DETERMINING THE PARTITION OF NAPHTHENIC ACIDS FROM A PRODUCTION WATER MIMICKING SYSTEM AND MIMICKING SYSTEM” (PETRÓLEO BRASILEIRO S.A. – PETROBRAS, priority 2023, published 2025).
Where “and” joins values, the source holds several entries; their conditions need not be identical. Equal entries are not always repeated.

Columns and labels:
[1] = Control experiments: availability of the species in alkaline aqueous medium without using the reactor; type: physicochemical; conditions: acid solubilized directly in aqueous phase, no reactor
Description: Previously, the back titration procedure was internalized and optimized (Example 1), ensuring that the reproducibility of the measurements was adequate (standard deviation values below 10%, for example) and that the recoveries were close to what was expected based on the purity of the reagents (i.e., close to or above 90%). […] Control experiments were performed (measuring the availability of the species in an aqueous medium, without using the reactor) by solubilizing the organic acid directly in the aqueous phase and titrating a 10.0 mL aliquot; the same way, experiments were performed in the reactor based on the standardization of heptol and salinity already discussed (3.5%).

[2] = Partition equilibrium in reactor pressurized with CO2, in presence and absence of alkalinity (NaHCO3, Na2CO3), back titration
Description: In the initial tests, 100 mL of heptol and 300 mL of water (with or without salinity) were used, with the addition of acidic species in the organic phase, in order to verify migration to the aqueous phase. As a rule, the system was kept under agitation at 500 rpm for 8 min, followed by rest for 10 min and, finally, collection of 50.0 mL aliquots of the aqueous phase for titrimetric analysis.
A 316 stainless steel alloy reactor (Parr®) (capacity for 600 mL and operational up to 20 MPa pressure) was used. For this purpose, a temperature range between 25° C. and 80° C. and pressure between 0.1 MPa and 1.0 MPa were used, and the reactor was pressurized with CO2. Thus, the results were compared (in terms of migration of the acidic species (%, mol) by means of back titrations) and the influence of pressure and temperature on the partition was estimated, as well as possible synergistic effects with the sources of alkalinity added to the aqueous phase.

[3] = Na2CO3 + NaHCO3 (3.48×10^−5 mol)
[4] = 25° C. and 1.0 MPa CO2, no alkalinity
[5] = 80° C. and 1.0 MPa CO2, no alkalinity
[6] = Na2CO3 + NaHCO3, 25° C. and 0.1 MPa
[7] = Na2CO3 + NaHCO3, 25° C. and 1.0 MPa CO2
[8] = Na2CO3 + NaHCO3, 80° C. and 1.0 MPa CO2
[9] = Reference (heptol + 3.5% NaCl), no alkalinity

Availability (reference value) [1, 3] [% mol]	Availability (reference value) ([1]; NaHCO3 (3.45×10^−5 mol)) [% mol]	Migration [2, 4]	Migration [2, 5]	Migration [2, 6] [% mol]	Migration [2, 7] [% mol]	Migration [2, 8] [% mol]	Migration ([2]; NaHCO3, 25° C. and 0.1 MPa) [% mol]	Migration ([2]; NaHCO3, 25° C. and 1.0 MPa CO2) [% mol]	Migration ([2]; NaHCO3, 80° C. and 1.0 MPa CO2)	Migration [2, 9]	SMILES
100	100	not quantifiable	not quantifiable	71.1	100.0	100.0	82.7	100.0	100.0 % mol	4.9 % mol and 4.3 % mol	O=C(O)CCCCC1CCCCC1 [Cyclohexanepentanoic Acid, cyclohexanepentanoic acid]
66.0	90.7	100 % mol	82.4 % mol	61.3	100	79.9	69.2	100	96.3 % mol	77 % mol	CCCCC(=O)O [Pentanoic Acid, pentanoic acid]

SMILES	Availability (reference value) [1, 3] [% mol]	Availability (reference value) ([1]; NaHCO3 (3.45×10^−5 mol)) [% mol]	Migration [2, 4]	Migration [2, 5]	Migration [2, 6] [% mol]	Migration [2, 7] [% mol]	Migration [2, 8] [% mol]	Migration ([2]; NaHCO3, 25° C. and 0.1 MPa) [% mol]	Migration ([2]; NaHCO3, 25° C. and 1.0 MPa CO2) [% mol]	Migration ([2]; NaHCO3, 80° C. and 1.0 MPa CO2)	Migration [2, 9]
O=C(O)c1ccccc1 [Benzoic Acid, benzoic acid]	72.2	83.1	64.4 % mol	59.3 % mol	49.3	100	88.3	53.6	93.3	88.9 % mol and 88.6 % mol	82.0±3.0 % mol and 82 % mol
